This is an account of results in publication PMC12285759 (RSC Advances, 2025).

Structures are written as SMILES.

In the series the test system is Vero Cells. Nature of the series: MTT assay, cytotoxicity of the test compounds. Format: cell-based. Particulars: not tested for inhibitory effect. Background: Tetrazolium assays rely on reduction of a dye to a coloured formazan, in cell work by metabolically active cells.

For the compound `O=c1ccn([C@@H]2O[C@H](COCc3ccccc3)[C@H](OCc3ccccc3)[C@H](OCc3ccccc3)[C@H]2I)c(=O)[nH]1` [3h], the “cytotoxicity (in words)” value is “cytotoxic”.
